In brackets after ≈: the same amount, converted by molar mass. Residues, ends and D or L forms follow the SMILES beside them.
How the values were obtained:
[1] = system: Listeria monocytogenes 10403s; test: Broth microdilution MIC / MBC; format: cell-based; conditions: 24 h, 37°C; for MIC: broth microdilution, MHB, 0.98-250 µg/mL, visible inspection; for MBC: plating of non-turbid wells on TSA
Method: (§1) The minimal inhibitory concentrations (MICs) of peptide derivatives versus planktonic bacteria were assessed using a modification of the broth microdilution assay previously described in the National Committee for Clinical Laboratory Standards (NCCLS). In brief, bacteria at mid-logarithmic growth were collected by centrifugation at 2,500 × g for 5 min. Subsequently, the pellet was resuspended and adjusted in Mueller-Hinton Broth (MHB; BD Bacto™, USA) to an OD620 of 0.05. Fifty µL of bacterial suspensions was transferred to 96-well microplates. Later, 50 µL of peptide derivatives at 0.98–250 µg/mL in 10 mM PBS, was added to wells and incubated for 24 h at 37°C with continuous shaking at 220 rpm. […] The experiments were done in three technical replicates and repeated independently.
(§2) To determine minimal bactericidal concentrations (MBCs) of the peptides, 50 µL of supernatant from non-turbid wells was plated on TSA, and the number of colony-forming units (CFUs) was observed after 24 h of incubation at 37°C. MBC was defined as the minimum concentration of peptide at which no bacterial colony was observed on the plate.

[2] = system: Acinetobacter baumanii MT strain; test: Broth microdilution MIC / MBC; format: cell-based; conditions: 24 h, 37°C; for MIC: broth microdilution, MHB, 0.98-250 µg/mL, visible inspection; for MBC: plating of non-turbid wells on TSA
Method: as §1, §2

[3] = system: Bacillus cereus ATCC 11778; test: Broth microdilution MIC / MBC; format: cell-based; conditions: 24 h, 37°C; for MIC: broth microdilution, MHB, 0.98-250 µg/mL, visible inspection; for MBC: plating of non-turbid wells on TSA
Method: as §1, §2

[4] = system: Staphylococcus aureus ATCC 25923; test: Broth microdilution MIC / MBC; format: cell-based; conditions: 24 h, 37°C
Method: as §1, §2

[5] = system: Pseudomonas aeruginosa ATCC 27853; test: Broth microdilution MIC / MBC; format: cell-based; conditions: 24 h, 37°C; for MIC: broth microdilution, MHB, 0.98-250 µg/mL, visible inspection; for MBC: plating of non-turbid wells on TSA
Method: as §1, §2

[6] = system: Staphylococcus epidermidis ATCC 35984; test: Broth microdilution MIC / MBC; format: cell-based; conditions: 24 h, 37°C; for MIC: broth microdilution, MHB, 0.98-250 µg/mL, visible inspection; for MBC: plating of non-turbid wells on TSA
Method: as §1, §2

[7] = system: Escherichia coli ATCC 25922; test: Broth microdilution MIC / MBC; format: cell-based; conditions: 24 h, 37°C; for MBC: plating of non-turbid wells on TSA
Method: as §1, §2

[8] = system: Salmonella Typhimurium ATCC 13311; test: Broth microdilution MIC / MBC; format: cell-based; conditions: 24 h, 37°C; for MIC: broth microdilution, MHB, 0.98-250 µg/mL, visible inspection; for MBC: plating of non-turbid wells on TSA
Method: as §1, §2

[9] = system: S. epidermidis (ATCC 35984) biofilm; test: Biofilm-formation inhibitory activity, crystal violet staining; format: cell-based, Staphylococcus epidermidis; conditions: CV staining, TSB, 10^6 CFU/mL, 24 h, 37°C, 0.98-250 µg/mL; for MBIC50: minimum concentration inhibiting biofilm formation more than 50%; for MBIC90: minimum concentration inhibiting biofilm formation more than 90%
Method: The biofilm inhibitory activity of peptide derivatives was assessed by modified crystal violet (CV) staining. Briefly, the pellet of S. epidermidis (ATCC 35984) was collected through centrifugation of bacterial suspensions grown overnight at 2,500 × g for 5 min. Subsequently, the pellet was resuspended and diluted with TSB to a final concentration of 10^6 CFU/mL. Then, 50 µL of these diluted suspensions was transferred to 96-well microplates containing same volume of peptide derivatives in 10 mM phosphate buffer saline (PBS; Caisson Labs, USA), with concentrations ranging from 0.98 to 250 µg/mL. Vancomycin was used as positive control while TSB medium without bacteria was used as negative control. After 24 h of incubation and reaching static growth at 37°C, culture media as well as planktonic cells were removed, then the biofilm in each well was washed thrice with 0.85% NaCl. For CV staining, biofilms were fixed with 95% ethanol and stained with a 0.1% (v/v) CV solution for 15 min. After removal of excess dye, each well was washed thrice with 0.85% NaCl and resuspended in 95% ethanol to dissolve bound dye. Absorbance was determined at 570 nm using a Multiskan SkyHigh microplate reader (Thermo Scientific™, Singapore). All experiments were done in six technical replicates and repeated independently three times. Minimum biofilm inhibitory concentrations at 50% and 90% (MBIC50 and MBIC90) refers to concentrations of the peptide at which the inhibition of biofilm was at least 50% and 90%, respectively.

[10] = system: human red blood cells (hRBCs); test: Hemolysis activity (hemoglobin release); format: cell-based; conditions: 1 h, 37°C
Method: The effect of peptides on human red blood cells (hRBCs) was assessed by observing the release of hemoglobin upon treated with peptide. Briefly, the hRBCs were obtained from healthy volunteers and subsequently diluted in 10 mM PBS to a concentration of 2% hRBCs. An equal volume of 2% hRBCs and peptide at concentration of 0.98–250 µg/mL in 10 mM PBS mixtures were incubated for 1 h at 37°C. Following incubation, the suspension was centrifuged, then supernatants were collected and transferred to 96-well microplates for measurement of absorbance at OD of 405 nm (OD405). This study was performed in accordance with the Thammasat University Ethics Committee (COA No. 066/2562). Written informed consent was obtained from all volunteers.

[11] = system: all gram-negative bacterial strains; test: Mean MIC and therapeutic index, gram-negative strains; format: cell-based; conditions: four gram-negative strains
Method: as §1
(§3) The therapeutic index (TI) is widely used for evaluating a peptide’s efficacy and safety. It is the ratio between the minimum hemolytic concentration (MHC, the concentration causing 10% hemolysis) and the geometric mean (GM) value of the MIC [15]. […] While, both lysine-substituted peptides (BiF2_7K and BiF2_5K7K) had higher TIs against all tested biofilm-forming bacteria than did the two parent peptides, and the TI of BiF2_5K7K was higher than that of BiF2_7K.

biofilm-forming bacteria = test: Antibacterial activity against the panel of planktonic biofilm-forming bacteria; format: cell-based
Method: The biofilm-forming bacteria, including S. epidermidis ATCC 35984, Staphylococcus aureus ATCC 25923, Bacillus cereus ATCC 11778, Listeria monocytogenes 10403s, Pseudomonas aeruginosa ATCC 27853, Salmonella Typhimurium ATCC 13311, Escherichia coli ATCC 25922 and Acinetobacter baumanii MT strain, were used. All bacterial strains were grown on tryptic soy agar (TSA; BD Bacto™, USA) except E. coli and L. monocytogenes which were cultured on Luria agar (LA) and TSA supplemented with 0.6% Yeast Extract (TSAYE), respectively, at 37°C overnight. Subsequently, isolated colonies were inoculated and cultured in 5 mL of tryptic soy broth (TSB; BD Bacto™, USA), Luria Broth (LB), or TSB supplemented with 0.6% Yeast Extract (TSBYE) at 37°C for 16–18 h.
The minimal inhibitory concentrations (MICs) of peptide derivatives versus planktonic bacteria were assessed using a modification of the broth microdilution assay previously described in the National Committee for Clinical Laboratory Standards (NCCLS). In brief, bacteria at mid-logarithmic growth were collected by centrifugation at 2,500 × g for 5 min. Subsequently, the pellet was resuspended and adjusted in Mueller-Hinton Broth (MHB; BD Bacto™, USA) to an OD620 of 0.05. Fifty µL of bacterial suspensions was transferred to 96-well microplates. […]

[12] = system: all gram-positive bacterial strains; test: Mean MIC and therapeutic index, gram-positive strains; format: cell-based; conditions: four gram-positive strains
Method: as §1, §3

[13] = system: human lung fibroblast MRC-5 cell lines (ATCC CCL-171); test: MTT cytotoxicity assay; format: cell-based; conditions: MRC-5, 24 h
Method: The toxicity of peptide BiF2_5K7K against human lung fibroblast MRC-5 cell lines (ATCC CCL-171) was investigated by MTT colorimetric assay. Briefly, MRC-5 cells were cultured in Minimum Essential Medium [MEM; supplemented with 10% heat-inactivated FBS and 1% Penicillin-Streptomycin] in 5% CO2 at 37°C. Following an overnight incubation, MRC-5 cells were diluted to 10,000 cells/well and placed in 96-well microplates. Subsequently, they were exposed to BiF2_5K7K at 0.98 to 250 µg/mL. After incubation for 24 h, MTT solution (0.4 mg/mL) was added to each well and incubated for an additional 3 h under 5% CO2 at 37°C. The supernatant was then removed and 100 µL DMSO added, and absorbance was measured at 570 nm using a microplate reader.

[14] = broth microdilution, MHB, 0.98-250 µg/mL, visible inspection

Structure (SMILES)	MIC [1] [µg/mL]	MBC [1] [µg/mL]	MIC [2] [µg/mL]	MBC [2] [µg/mL]	MIC [3] [µg/mL]	MBC [3] [µg/mL]	MIC [5] [µg/mL]	MBC [5] [µg/mL]	MIC [6] [µg/mL]	MBC [6] [µg/mL]	MBC [7] [µg/mL]	MIC [8] [µg/mL]	MBC [8] [µg/mL]	MBIC50 [9] [µg/mL]	MBIC90 [9] [µg/mL]	GM-, geometric mean of MIC values from all gram-negative bacterial strains [11] [µg/mL]	GM +, geometric mean of MIC values from all gram-positive bacterial strains [12] [µg/mL]	other results
CC[C@H](C)[C@H](NC(=O)[C@H](CC(C)C)NC(=O)[C@H](CCCCN)NC(=O)[C@@H](NC(=O)[C@H](CC(C)C)NC(=O)[C@@H](N)Cc1ccccc1)C(C)C)C(=O)N[C@@H](CC(C)C)C(N)=O [BiF] (H-FLVKLIL-NH2; N-terminus assumed)	> 250	> 250	> 250	> 250	> 250	> 250	> 250	> 250	> 250	> 250	> 250	> 250	> 250	125	>250	>250	>250	MIC [4, 14]: > 250 µg/mL; MBC ([4]; plating of non-turbid wells on TSA): > 250 µg/mL; MIC [7, 14]: > 250 µg/mL; hRBCs lysed (hemolysis) ([10]; at 31.25 µg/mL): more than 20%; hemolytic activity ([10]; at 250 µg/mL (maximum concentration tested)): 100%; MHC, minimum hemolytic concentration ([10]; peptide concentration causing 10% hemolysis of hRBCs, 2% hRBCs in 10 mM PBS, OD405): 15.63 µg/mL; antibacterial activity against target bacteria (biofilm-forming bacteria): no antibacterial activity
CC[C@H](C)[C@H](NC(=O)CN)C(=O)NCC(=O)N[C@@H](C)C(=O)N[C@H](C(=O)N[C@@H](CC(C)C)C(=O)N[C@@H](CCCCN)C(=O)N[C@H](C(=O)N[C@@H](CC(C)C)C(=O)N[C@H](C(=O)N[C@H](C(=O)NCC(=O)N[C@@H](CC(C)C)C(=O)N1CCC[C@H]1C(=O)N[C@@H](C)C(=O)N[C@@H](CC(C)C)C(=O)N[C@H](C(=O)N[C@@H](CO)C(=O)N[C@@H](Cc1c[nH]c2ccccc12)C(=O)N[C@H](C(=O)N[C@@H](CCCCN)C(=O)N[C@@H](CCCNC(=N)N)C(=O)N[C@@H](CCCCN)C(=O)N[C@@H](CCCNC(=N)N)C(=O)N[C@@H](CCC(N)=O)C(=O)N[C@@H](CCC(N)=O)C(N)=O)[C@@H](C)CC)[C@@H](C)CC)[C@@H](C)O)[C@@H](C)O)C(C)C)C(C)C [Melittin, melittin, reference compound]	3.91 (≈ 1.37 µM)	3.91 (≈ 1.37 µM)	7.81 (≈ 2.74 µM)	7.81 (≈ 2.74 µM)	3.91 (≈ 1.37 µM)	3.91 (≈ 1.37 µM)	15.6 (≈ 5.49 µM)	15.6 (≈ 5.49 µM)	15.6 (≈ 5.49 µM)	15.6 (≈ 5.49 µM)	31.2 (≈ 11 µM)	3.91 (≈ 1.37 µM)	3.91 (≈ 1.37 µM)			14.65	6.84	lysis of hRBCs ([10]; at 3.91 µg/mL): completely lysed; cytotoxic effect [13]: strong dose-dependent cytotoxic effect
CN[C@H](CC(C)C)C(=O)N[C@H]1C(=O)N[C@@H](CC(N)=O)C(=O)N[C@H]2C(=O)N[C@H]3C(=O)N[C@H](C(=O)N[C@H](C(=O)O)c4cc(O)cc(O)c4-c4cc3ccc4O)[C@H](O)c3ccc(c(Cl)c3)Oc3cc2cc(c3O[C@@H]2O[C@H](CO)[C@@H](O)[C@H](O)[C@H]2O[C@H]2C[C@](C)(N)[C@H](O)[C@H](C)O2)Oc2ccc(cc2Cl)[C@H]1O [vancomycin, reference compound]														3.91	3.91			
